Key:
ζ-globin gene (hbae5) [1] = test: Whole-mount mRNA in situ hybridization (WISH) of ζ-globin gene (hbae5) in zebrafish embryos; assay type: in vivo; details: 5 μmol/L, 24 hours
Method: (§1) K562 cells were cultured in RPMI 1640 medium supplemented with 10% (v/v) fetal bovine serum; Hemin was dissolved into 0.2 mol/L NaOH solution, and the working concentration for treating K562 cells is 20 μmol/L; Triac, T3 and T4 were dissolved into dimethyl sulfoxide (DMSO), and the working concentration for treating K562 cells and zebrafish embryos is 20 μmol/L and 5 μmol/L, respectively.
After treatment with Triac, T3 and T4 for 24 hours, respectively, zebrafish embryos were fixed by 4% paraformaldehyde. The expression of ζ-globin gene (hbae5) was detected by Whole-mount mRNA in situ hybridization (WISH).

ζ-globin gene (hbae5) [2] = test: qPCR of ζ-globin gene (hbae5) expression in zebrafish embryos; assay type: in vivo; details: 5 μmol/L, 24 hours
Method: as §1
After treatment with Triac, T3 and T4 for 24 hours, respectively, zebrafish embryos were collected. TRIzol reagent (Invitrogen) was used to extract total RNA, then a reverse transcription kit (ReverTra Ace, TOYOBO) was used to synthesize cDNA, and finally, a SYBRGreen Realtime PCR Master Mix (TOYOBO) reagent was used to perform quantitative PCR.
(§2) The quantitative PCR reaction system is:
(§3) The quantitative PCR reaction conditions are: • hot start: 95° C., 10 minutes; • denaturation: 95° C., 10 seconds; and • annealing/extension: 60° C., 30 seconds. • 40 circles. Analysis of a […]

ζ-globin gene (HBZ) = test: qPCR of ζ-globin gene (HBZ) expression in hemin-treated K562 cells; assay type: cell-based, human; details: hemin plus Triac 20 μmol/L, 72 hours
Method: as §1
K562 cells were treated with hemin or hemin plus Triac for 72 hours, respectively, centrifugation was performed at 2000 rpm for 5 minutes to collect cells, a TRIzol reagent (Invitrogen) was used to extract total RNA, then a reverse transcription kit (ReverTra Ace, TOYOBO) was used to synthesize cDNA, and finally, a SYBR Green Realtime PCR Master Mix (TOYOBO) reagent was used to perform quantitative PCR.
as §2, §3

N[C@@H](Cc1cc(I)c(Oc2ccc(O)c(I)c2)c(I)c1)C(=O)O [T3, 3,3′,5-Triiodo-L-thyronine]
expression of ζ-globin gene (hbae5) by WISH (ζ-globin gene (hbae5) [1]): significantly induce the expression
expression of ζ-globin gene (hbae5) up-regulated (qPCR) (ζ-globin gene (hbae5) [2]): 31 folds

N[C@@H](Cc1cc(I)c(Oc2cc(I)c(O)c(I)c2)c(I)c1)C(=O)O [T4, 3,3′,5,5′-tetraiodothyronine]
expression of ζ-globin gene (hbae5) by WISH (ζ-globin gene (hbae5) [1]): significantly induce the expression
expression of ζ-globin gene (hbae5) up-regulated (qPCR) (ζ-globin gene (hbae5) [2]): 41 folds

O=C(O)Cc1cc(I)c(Oc2ccc(O)c(I)c2)c(I)c1 [Triac, 2-[4-(4-Hydroxy-3-iodophenoxy)-3,5-diiodophenyl] acetic acid]
expression of ζ-globin gene (hbae5) by WISH (ζ-globin gene (hbae5) [1]): significantly induce the expression
expression of ζ-globin gene (hbae5) up-regulated (qPCR) (ζ-globin gene (hbae5) [2]): 76 folds
expression of ζ-globin gene (HBZ) up-regulated (qPCR) (ζ-globin gene (HBZ)): 50.9 folds
